Measurements as given in PMC8309005, “Novel Non-Congeneric Derivatives of the Choline Kinase Alpha Inhibitor ICL-CCIC-0019” (Pharmaceutics, 2021).
Read-outs that look alike come from different tables or passages of the source.

Legend:
[1] = system: C4-2B prostate cancer cells; assay: Cellular uptake and metabolism study in C4-2B with or without serum (HPLC); conditions: 50 μM, 4 h
Experimental: Cell lysate sample preparation: C4-2B prostate cancer cells were seeded into cell culture dishes (150 × 25 mm) at a density of 7 × 10^6 per dish. The cells were allowed to settle and grow for another 48 h. The cells were treated with ICL-CCIC-0019, CK146, CK147 and CK148 (50 μM of 7 mL RPMI medium with or without 10% FCS) for 4 h in the incubator. After 4-h incubation, the aliquots of medium were collected (see the medium sample preparation section). Cells were scraped, washed with ice-cold PBS three times and collected by centrifugation (4 °C, 4000× g). The cell pellets were resuspended in 500 μL of chilled acetonitrile:PBS (50:50, v/v) for cell disruption and homogenization. The cell disruption was performed by a Precellys® 24 homogenizer (Bertin Technologies, Montigny-le-Bretonneux, France) at 4 °C. After acetonitrile evaporation at room temperature, 50 μL of cell lysis was taken for protein analysis. Another 100 μL of the supernatant obtained after centrifuge (4 °C, 15,000× g) was resuspended in 100 μL formic acid:water (0.2%, v/v). Next, 100 μL of the filtered solution was analyzed by HPLC system described in Supplementary HPLC method D. Three injections were performed for each sample. Intracellular drug was normalized to cellular protein of each plate using BCA assay. Medium sample preparation for HPLC analysis: 250-μL aliquots of medium (with or without 10% FCS) were transferred into 1.5-mL tube containing 250 μL acetonitrile. After a brief vortex, the tube was placed at 4 °C for 30 min for protein precipitation. One hundred microliters of the resulting supernatant from centrifuge (4 °C, 15,000× g) were resuspended in 100 μL formic acid: water (0.2%, v/v). One hundred microliters of the filtered sample were analyzed by HPLC system described in Supplementary HPLC method D. Three injections were performed for each sample.

[2] = molecular target: phosphatidylinositol 4-kinase beta (PIK4CB) (Homo sapiens, UniProt Q9UBF8); assay: Lipid kinase screening (ADP-Glo), PIK4CB; format: biochemical
Experimental: (§1) The lipid kinase screening for ICL-CCIC-0019, CK14, CK145 (5), CK146 (4) and CK147 (8) (testing concentration for all compounds: 10 μM) was performed by MRC PPU International Centre for Kinase Profiling (Dundee, UK). The lipid kinase screening panel includes 15 human recombinant lipid kinases and the tests used Promega ADP Glo^TM High Throughput Assay kit (Promega, Southampton, UK). For each assay, reference compounds were used as quality control. Finally, mean percentage activity inhibited by compounds and standard deviation for all the repeats were calculated.

[3] = molecular target: DGK g (Homo sapiens, UniProt P49619); assay: Lipid kinase screening (ADP-Glo), DGK g; format: biochemical
Experimental: as §1

[4] = molecular target: PI4K2a (Homo sapiens, UniProt Q9BTU6); assay: Lipid kinase screening (ADP-Glo), PI4K2a; format: biochemical
Experimental: as §1

[5] = molecular target: PI3K b (Homo sapiens, UniProt P42338); assay: Lipid kinase screening (ADP-Glo), PI3K b; format: biochemical
Experimental: as §1

[6] = molecular target: PI3K g (Homo sapiens, UniProt P48736); assay: Lipid kinase screening (ADP-Glo), PI3K g; format: biochemical
Experimental: as §1

[7] = molecular target: T1, PIP5K2A (Homo sapiens, UniProt P48426); assay: Lipid kinase screening (ADP-Glo), PIP5K2A; format: biochemical
T1 sequence (P48426 1-406): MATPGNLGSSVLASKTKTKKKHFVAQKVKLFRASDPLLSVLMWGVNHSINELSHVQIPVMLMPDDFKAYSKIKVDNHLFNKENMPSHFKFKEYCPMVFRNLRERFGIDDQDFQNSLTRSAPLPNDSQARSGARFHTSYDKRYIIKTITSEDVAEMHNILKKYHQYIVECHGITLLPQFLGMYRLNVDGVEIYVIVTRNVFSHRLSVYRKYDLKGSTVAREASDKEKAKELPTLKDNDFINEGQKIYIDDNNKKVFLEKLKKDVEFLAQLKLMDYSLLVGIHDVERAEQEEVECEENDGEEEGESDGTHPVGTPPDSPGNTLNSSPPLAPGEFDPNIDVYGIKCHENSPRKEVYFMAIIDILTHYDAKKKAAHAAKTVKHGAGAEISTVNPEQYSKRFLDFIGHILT
Experimental: as §1

[8] = molecular target: PI3K a (Homo sapiens, UniProt P42336); assay: Lipid kinase screening (ADP-Glo), PI3K a; format: biochemical
Experimental: as §1

[9] = system: Caco-2 cell line; assay: Caco-2 permeability and efflux study; format: in vitro ADME, human; conditions: Caco-2
Experimental: (§2) The ADME study for ICL-CCIC-0019, CK14, CK145 (5), CK146 (4) and CK147 (8) was performed by Charles River Drug Discovery Services (Essex, UK).
(§3) The predicted in vitro pharmacokinetic characteristics of compounds were evaluated by four ADME assays, namely kinetic solubility assay, metabolic stability assay using human liver microsome S9, permeability and efflux study using the Caco-2 cell line, and matrix stability assay using fasted state simulated gastric fluid (FaSSGF). All tested CHKA inhibitors were highly soluble (>150 μM) in 0.1 M PBS (2% DMSO) (Table 1). […] The in vivo clearance was calculated to predict the actual clearance in humans by scaling the clearance values, which takes into account liver weight, microsomes per liver and liver blood flow. […] In Caco-2 cell permeability assay, drug permeability was investigated and presented as apparent permeability coefficients (Papp) in A to B (A-B, apical to basolateral direction) and B to A (B-A, basolateral to apical direction).

[10] = Caco-2 permeability and efflux study; format: in vitro ADME, human
Experimental: as §2, §3

[11] = molecular target: CHK b (CHKB) (Homo sapiens, UniProt Q9Y259); assay: Lipid kinase screening (ADP-Glo), CHKB; format: biochemical
Experimental: as §1

[12] = molecular target: DGK b (Homo sapiens, UniProt Q9Y6T7); assay: Lipid kinase screening (ADP-Glo), DGK b; format: biochemical
Experimental: as §1

[13] = molecular target: T2, SPHK2 (Homo sapiens, UniProt Q9NRA0); assay: Lipid kinase screening (ADP-Glo), SPHK2; format: biochemical
T2 sequence (Q9NRA0 1-654): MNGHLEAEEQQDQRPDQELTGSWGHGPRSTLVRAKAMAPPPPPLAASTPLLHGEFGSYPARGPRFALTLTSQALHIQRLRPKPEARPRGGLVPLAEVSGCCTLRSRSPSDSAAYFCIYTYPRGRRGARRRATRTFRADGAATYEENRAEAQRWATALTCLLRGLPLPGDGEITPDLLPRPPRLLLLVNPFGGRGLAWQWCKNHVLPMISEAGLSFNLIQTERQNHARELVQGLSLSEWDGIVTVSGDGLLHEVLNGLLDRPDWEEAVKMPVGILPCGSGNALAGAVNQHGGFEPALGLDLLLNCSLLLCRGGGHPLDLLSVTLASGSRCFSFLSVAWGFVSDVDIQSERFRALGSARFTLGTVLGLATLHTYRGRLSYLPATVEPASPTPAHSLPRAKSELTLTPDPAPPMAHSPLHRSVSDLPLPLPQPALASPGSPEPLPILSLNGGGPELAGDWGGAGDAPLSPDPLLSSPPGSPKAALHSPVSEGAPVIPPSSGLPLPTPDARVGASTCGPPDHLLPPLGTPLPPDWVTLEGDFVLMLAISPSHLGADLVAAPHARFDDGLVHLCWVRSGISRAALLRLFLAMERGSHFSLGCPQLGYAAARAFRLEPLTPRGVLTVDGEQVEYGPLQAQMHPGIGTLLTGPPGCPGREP
Experimental: as §1

[14] = molecular target: PI3Ka E545K + p85 (Homo sapiens, UniProt P42336, E545K); assay: Lipid kinase screening (ADP-Glo), PI3Ka E545K + p85; format: biochemical
Experimental: as §1

[15] = Conjugate stability test of CK147 in medium (HPLC); format: physicochemical; conditions: up to 72 h
Experimental: To assess stability of CK147 in medium, 5 mL of medium containing 10% FCS and 1% L-glutamine was added sterilely to a six-well plate. Next, 1.7 μL of 300 mM CK147 in DMSO or 1.7 μL DMSO was added into wells and the plate was gently shaken for 5 s before being incubated at 37 °C in a humidified atmosphere containing 5% CO2. After 0, 2, 4, 6, 24, 48 and 72 h, 200 μL aliquots of medium from each well were transferred into a 1.5-mL tube containing 198.4 μL acetonitrile and 1.6 μL of 2.5 mg/mL ICL-CCIC-0019 as an internal standard (IS) […]. […] One hundred microliters of the solution were injected into the HPLC system described in Supplementary HPLC method D. Three repeats were performed for each sample.

[16] = molecular target: CHK a (CHKA) (Homo sapiens, UniProt P35790); assay: Lipid kinase screening (ADP-Glo), CHKA; format: biochemical
Experimental: as §1

[17] = Kinetic solubility assay; format: physicochemical; conditions: aqueous buffer, kinetic from dmso stock
Experimental: as §2, §3

[18] = molecular target: SPHK1 (Homo sapiens, UniProt Q9NYA1); assay: Lipid kinase screening (ADP-Glo), SPHK1; format: biochemical
Experimental: as §1

[19] = Human microsomal metabolic stability assay; format: in vitro ADME
Experimental: as §2, §3

[20] = Matrix stability assay in fasted state simulated gastric fluid (FaSSGF); format: in vitro ADME; conditions: for half-life: pH 1.6
Experimental: as §2, §3

[21] = molecular target: DGK z (Homo sapiens, UniProt Q13574); assay: Lipid kinase screening (ADP-Glo), DGK z; format: biochemical
Experimental: as §1

[22] = system: A549; conditions: cited from earlier work
[23] = system: PI3Ka E524K + p85; assay: Lipid kinase screening (ADP-Glo), PI3Ka E524K + p85; format: biochemical, human; conditions: 10 μM
Experimental: as §1

[24] = system: Δ49N CHKA2 (recombinant CHKA2); conditions: read-out: IC50 against recombinant CHKA2; cited from earlier work
[25] = system: [18F]D4-FCH uptake in C4-2B cells; assay: [18F]D4-FCH uptake in vitro study, C4-2B; format: cell-based; conditions: Homo sapiens
Experimental: HCT-116 and C4-2B cells were seeded at a density of 5 × 10^5 cells per well into 6-well plates and incubated overnight. Cells were treated with 1 or 10 µM CHKA inhibitors (CK14, CK145, CK146 and CK147) for 1 h and pulsed with [^18F]D4-FCH (740 kBq) in presence of inhibitors in 1 mL for an additional hour at 37 °C. Cells were washed with ice-cold PBS three times and lysed in 1 mL RIPA buffer. The radioactivity of 800 µL lysate from each well was counted on a gamma counter (Perkin Elmer, Beaconsfield, UK) and normalized to protein content as determined by BCA assay.

[26] = system: HCT-116; conditions: cited from earlier work

Sequence of phosphatidylinositol 4-kinase beta (PIK4CB) (Q9UBF8 whole entry): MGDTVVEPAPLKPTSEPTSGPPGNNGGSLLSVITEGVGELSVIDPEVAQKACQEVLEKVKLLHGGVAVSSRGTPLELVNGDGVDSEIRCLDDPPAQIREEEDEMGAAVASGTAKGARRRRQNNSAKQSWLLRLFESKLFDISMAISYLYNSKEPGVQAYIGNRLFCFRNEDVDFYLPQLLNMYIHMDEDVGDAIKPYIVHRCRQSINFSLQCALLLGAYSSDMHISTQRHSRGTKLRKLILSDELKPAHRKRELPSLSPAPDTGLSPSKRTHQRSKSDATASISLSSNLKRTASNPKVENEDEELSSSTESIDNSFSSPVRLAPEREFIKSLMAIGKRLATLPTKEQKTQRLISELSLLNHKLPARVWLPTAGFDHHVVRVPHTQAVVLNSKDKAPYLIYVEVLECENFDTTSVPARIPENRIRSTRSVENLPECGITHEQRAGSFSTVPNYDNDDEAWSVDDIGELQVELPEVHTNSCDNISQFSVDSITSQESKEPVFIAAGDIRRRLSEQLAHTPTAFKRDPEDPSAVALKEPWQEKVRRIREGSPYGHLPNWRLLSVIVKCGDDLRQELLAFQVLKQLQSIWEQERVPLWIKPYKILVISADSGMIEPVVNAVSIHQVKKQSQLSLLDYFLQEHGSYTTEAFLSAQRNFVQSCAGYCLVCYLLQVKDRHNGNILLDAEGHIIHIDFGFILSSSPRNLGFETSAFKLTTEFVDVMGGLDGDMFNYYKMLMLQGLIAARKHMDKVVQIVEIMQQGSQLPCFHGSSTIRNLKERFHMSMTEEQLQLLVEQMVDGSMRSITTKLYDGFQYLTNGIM
Sequence of PI3K g (P48736 whole entry): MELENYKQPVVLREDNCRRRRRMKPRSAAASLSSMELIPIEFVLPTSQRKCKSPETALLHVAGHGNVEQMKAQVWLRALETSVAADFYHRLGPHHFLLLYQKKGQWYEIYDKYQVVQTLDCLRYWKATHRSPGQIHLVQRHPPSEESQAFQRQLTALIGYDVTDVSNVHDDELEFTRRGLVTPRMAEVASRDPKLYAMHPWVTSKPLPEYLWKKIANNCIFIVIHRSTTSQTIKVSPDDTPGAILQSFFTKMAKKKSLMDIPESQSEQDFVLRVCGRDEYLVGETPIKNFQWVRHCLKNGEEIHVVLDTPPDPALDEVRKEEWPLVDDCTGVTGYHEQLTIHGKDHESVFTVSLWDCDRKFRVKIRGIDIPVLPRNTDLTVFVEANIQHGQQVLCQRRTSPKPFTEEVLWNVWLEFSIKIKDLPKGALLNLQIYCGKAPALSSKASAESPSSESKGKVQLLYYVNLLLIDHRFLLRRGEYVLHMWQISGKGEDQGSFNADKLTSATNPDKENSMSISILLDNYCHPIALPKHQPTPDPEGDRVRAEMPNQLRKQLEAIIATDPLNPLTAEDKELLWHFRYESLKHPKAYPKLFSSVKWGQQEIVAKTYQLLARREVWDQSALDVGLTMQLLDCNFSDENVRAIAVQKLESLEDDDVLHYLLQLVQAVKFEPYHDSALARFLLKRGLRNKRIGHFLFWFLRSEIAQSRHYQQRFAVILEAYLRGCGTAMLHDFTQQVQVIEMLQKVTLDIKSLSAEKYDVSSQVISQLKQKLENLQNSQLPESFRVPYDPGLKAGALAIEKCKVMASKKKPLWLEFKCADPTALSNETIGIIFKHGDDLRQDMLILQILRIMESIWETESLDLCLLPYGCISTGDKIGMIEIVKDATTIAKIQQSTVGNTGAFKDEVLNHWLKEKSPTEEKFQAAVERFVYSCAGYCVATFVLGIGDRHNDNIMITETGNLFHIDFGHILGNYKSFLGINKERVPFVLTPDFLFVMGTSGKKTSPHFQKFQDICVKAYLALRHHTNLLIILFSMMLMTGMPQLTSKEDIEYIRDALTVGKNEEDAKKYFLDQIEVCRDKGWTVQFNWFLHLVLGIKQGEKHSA
Sequence of DGK z (Q13574 whole entry): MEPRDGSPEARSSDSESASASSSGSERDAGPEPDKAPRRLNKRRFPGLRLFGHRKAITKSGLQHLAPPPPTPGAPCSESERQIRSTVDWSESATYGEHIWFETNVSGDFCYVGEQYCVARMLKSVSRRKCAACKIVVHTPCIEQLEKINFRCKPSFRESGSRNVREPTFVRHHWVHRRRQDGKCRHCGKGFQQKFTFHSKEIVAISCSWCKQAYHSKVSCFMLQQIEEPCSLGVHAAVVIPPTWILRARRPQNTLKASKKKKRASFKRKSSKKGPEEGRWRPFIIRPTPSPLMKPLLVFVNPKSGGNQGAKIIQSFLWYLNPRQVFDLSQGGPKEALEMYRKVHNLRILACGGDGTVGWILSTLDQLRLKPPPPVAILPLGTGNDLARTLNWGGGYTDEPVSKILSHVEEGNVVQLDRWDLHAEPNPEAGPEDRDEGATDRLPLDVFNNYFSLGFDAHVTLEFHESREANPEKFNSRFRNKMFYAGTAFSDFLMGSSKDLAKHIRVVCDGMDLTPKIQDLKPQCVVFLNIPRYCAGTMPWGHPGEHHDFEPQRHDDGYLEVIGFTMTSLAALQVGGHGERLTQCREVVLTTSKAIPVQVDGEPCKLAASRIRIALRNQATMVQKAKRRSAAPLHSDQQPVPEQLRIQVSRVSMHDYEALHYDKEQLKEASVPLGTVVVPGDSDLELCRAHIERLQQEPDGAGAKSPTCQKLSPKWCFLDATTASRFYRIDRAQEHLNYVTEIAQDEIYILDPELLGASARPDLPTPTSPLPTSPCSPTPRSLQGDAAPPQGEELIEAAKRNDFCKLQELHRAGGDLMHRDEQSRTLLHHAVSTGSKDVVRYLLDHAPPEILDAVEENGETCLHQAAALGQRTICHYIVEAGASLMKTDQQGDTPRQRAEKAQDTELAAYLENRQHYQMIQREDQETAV
Sequence of PI4K2a (Q9BTU6 whole entry): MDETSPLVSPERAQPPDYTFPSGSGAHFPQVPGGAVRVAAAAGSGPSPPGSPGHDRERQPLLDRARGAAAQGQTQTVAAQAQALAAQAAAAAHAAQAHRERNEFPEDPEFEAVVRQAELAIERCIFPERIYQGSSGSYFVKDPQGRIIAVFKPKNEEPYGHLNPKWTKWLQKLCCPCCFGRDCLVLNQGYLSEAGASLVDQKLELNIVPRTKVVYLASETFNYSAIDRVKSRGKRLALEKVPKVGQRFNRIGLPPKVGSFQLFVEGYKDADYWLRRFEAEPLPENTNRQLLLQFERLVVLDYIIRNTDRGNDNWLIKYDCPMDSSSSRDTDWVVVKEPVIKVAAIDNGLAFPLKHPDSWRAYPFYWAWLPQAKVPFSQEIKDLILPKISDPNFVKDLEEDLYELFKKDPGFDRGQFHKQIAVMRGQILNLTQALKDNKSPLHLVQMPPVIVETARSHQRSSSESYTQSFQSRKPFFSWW
Sequence of DGK g (P49619 whole entry): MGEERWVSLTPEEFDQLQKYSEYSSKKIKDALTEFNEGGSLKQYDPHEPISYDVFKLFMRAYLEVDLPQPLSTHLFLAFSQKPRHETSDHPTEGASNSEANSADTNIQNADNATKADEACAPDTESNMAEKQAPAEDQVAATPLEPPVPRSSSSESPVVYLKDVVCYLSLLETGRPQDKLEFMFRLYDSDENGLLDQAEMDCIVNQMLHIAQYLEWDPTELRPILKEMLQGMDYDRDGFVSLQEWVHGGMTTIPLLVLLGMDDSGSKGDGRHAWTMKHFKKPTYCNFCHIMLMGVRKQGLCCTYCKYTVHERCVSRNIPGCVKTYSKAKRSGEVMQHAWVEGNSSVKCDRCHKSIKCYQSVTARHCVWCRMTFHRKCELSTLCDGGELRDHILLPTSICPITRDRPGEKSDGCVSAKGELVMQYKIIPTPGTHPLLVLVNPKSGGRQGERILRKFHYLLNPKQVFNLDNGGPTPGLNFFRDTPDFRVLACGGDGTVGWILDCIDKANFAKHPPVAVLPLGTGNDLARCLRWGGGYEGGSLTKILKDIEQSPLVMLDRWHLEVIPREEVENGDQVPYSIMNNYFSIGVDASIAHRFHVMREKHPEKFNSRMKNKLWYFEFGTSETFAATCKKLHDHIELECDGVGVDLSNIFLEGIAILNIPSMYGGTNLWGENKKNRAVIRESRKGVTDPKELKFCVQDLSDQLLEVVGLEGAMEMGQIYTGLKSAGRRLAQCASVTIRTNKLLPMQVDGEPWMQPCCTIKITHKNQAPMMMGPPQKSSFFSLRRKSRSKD
Sequence of SPHK1 (Q9NYA1 whole entry): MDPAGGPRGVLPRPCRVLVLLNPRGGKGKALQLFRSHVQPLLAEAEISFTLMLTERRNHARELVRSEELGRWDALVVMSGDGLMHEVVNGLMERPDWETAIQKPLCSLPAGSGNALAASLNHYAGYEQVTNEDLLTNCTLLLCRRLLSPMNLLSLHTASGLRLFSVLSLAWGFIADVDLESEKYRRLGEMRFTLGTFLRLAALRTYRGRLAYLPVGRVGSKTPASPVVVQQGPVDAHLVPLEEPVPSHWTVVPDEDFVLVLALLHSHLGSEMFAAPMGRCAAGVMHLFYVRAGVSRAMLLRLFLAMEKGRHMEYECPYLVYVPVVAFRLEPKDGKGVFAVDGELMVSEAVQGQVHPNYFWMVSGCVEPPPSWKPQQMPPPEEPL
Sequence of CHK b (CHKB) (Q9Y259 whole entry): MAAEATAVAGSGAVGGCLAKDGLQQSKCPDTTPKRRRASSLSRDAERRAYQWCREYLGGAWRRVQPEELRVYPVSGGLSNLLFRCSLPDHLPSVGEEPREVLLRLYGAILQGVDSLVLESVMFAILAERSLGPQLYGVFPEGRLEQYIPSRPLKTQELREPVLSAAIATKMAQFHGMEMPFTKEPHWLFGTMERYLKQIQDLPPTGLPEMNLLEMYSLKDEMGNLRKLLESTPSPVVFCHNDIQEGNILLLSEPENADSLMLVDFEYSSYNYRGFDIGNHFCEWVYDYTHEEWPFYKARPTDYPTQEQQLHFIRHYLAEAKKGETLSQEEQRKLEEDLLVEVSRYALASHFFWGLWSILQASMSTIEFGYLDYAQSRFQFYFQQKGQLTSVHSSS

Compound: CN(C)c1cc[n+](CCCCCCCCCCCCCC[n+]2ccc(N3CCN(C(=O)CSC4CC(=O)N(CCC(=O)NCCCCCC(=O)NCCCCC(NC(=O)NC(CCC(=O)OC(C)(C)C)C(=O)OC(C)(C)C)C(=O)OC(C)(C)C)C4=O)CC3)cc2)cc1 (centres unmarked) [CK148]
- cellular uptake, mean ± SD of two experiment groups ([1]; FCS positive and negative groups): 42.5 ± 11.5 % μg^−1 protein
- detection in cell lysates by HPLC (in words) ([1]; both FCS groups): detected

Compound: CN(C)c1cc[n+](CCCCCCCCCCCCCC[n+]2ccc(N3CCN(C(=O)CSC4CC(=O)N(CCC(=O)NCCCCCC(=O)NCCCCC(NC(=O)NC(CCC(=O)O)C(=O)O)C(=O)O)C4=O)CC3)cc2)cc1 (centres unmarked) [CK147]
- inhibition at 10 µM [2]: 0.5%
- inhibition at 10 µM [3]: -6.5%
- inhibition at 10 µM [4]: 10.4%
- inhibition at 10 µM [5]: -0.1%
- inhibition at 10 µM [6]: 2.1%
- inhibition at 10 µM [7]: -1.5%
- inhibition at 10 µM [8]: -2.6%
- Efflux ratio (Papp B-A/Papp A-B) [9]: too poor to permit calculation of the efflux ratio
- Papp A→B ([10]; Caco-2): < 0.1 ×10⁻⁶ cm/s
- Papp B→A ([10]; Caco-2): < 0.1 ×10⁻⁶ cm/s
- inhibition at 10 µM [11]: 3.2%
- inhibition at 10 µM [12]: -4.9%
- inhibition at 10 µM [13]: -3.7%
- inhibition at 10 µM [14]: 22.8%
- chemical decomposition in medium by HPLC/MS (in words) [15]: Chemical decomposition was not detected
- inhibition at 10 µM [16]: 13.1%
- solubility kinetic [17]: 186 µM
- inhibition at 10 µM [18]: -1%
- PCT_LBF % (percentage of compound removed compared to liver blood flow) [19]: <45%
- Predicted in vivo clearance [19]: <10 mL/min/kg
- Human Microsomal Metabolic Stability: Remaining % ([19]; human): 105%
- microsomal CLint ([19]; human, Human Microsomal Metabolic Stability: Clint): < 14 µL/min/mg
- half-life ([19]; human, liver microsomes, Human Microsomal Metabolic Stability: Half-life): > 1.67 h
- Matrix Stability: Remaining % ([20]; simulated gi fluid): 97%
- half-life ([20]; simulated gi fluid): > 10 h
- inhibition at 10 µM [21]: 4.7%

Compound: CN(C)c1cc[n+](CCCCCCCCCCCCCC[n+]2ccc(N(C)C)cc2)cc1.[Br-].[Br-] [CK14, reference compound]
- inhibition at 10 µM [2]: -4.1%
- GI50 [22]: 330 nM
- % Inhibition PI3Ka E524K + p85 [23]: 1.6%
- inhibition at 10 µM [3]: 12.8%
- inhibition at 10 µM [4]: -48.8%
- inhibition at 10 µM [5]: -36.2%
- inhibition at 10 µM [6]: 16.4%
- inhibition at 10 µM [7]: -2.7%
- inhibition at 10 µM [8]: -1.9%
- efflux ratio ([10]; human, Caco-2, read-out: Efflux ratio (Papp B-A/Papp A-B)): > 87
- Papp A→B ([10]; human, Caco-2, apical to basolateral, read-out: Papp A-B): < 0.1 ×10⁻⁶ cm/s
- Papp B→A ([10]; human, Caco-2, basolateral to apical, read-out: Papp B-A): 8.7 ×10⁻⁶ cm/s
- inhibition at 10 µM [11]: -33.7%
- inhibition at 10 µM [12]: 11.9%
- IC50 [24]: 150 nM
- inhibition at 10 µM [13]: 16%
- inhibition at 10 µM [14]: -15.2%
- inhibition at 1 µM ([25]; 1 μM, read-out: inhibition of [18F]D4-FCH uptake (mean of CK14, CK145 and CK146)): 46 ± 1%
- inhibition at 10 µM ([25]; 10 μM): 93 ± 5%
- inhibition at 10 µM [16]: 77%
- solubility kinetic ([17]; 0.1 M PBS (2% DMSO), read-out: Kinetic Solubility: Solubility): 154 µM
- inhibition at 10 µM [18]: -10.1%
- PCT_LBF % (percentage of compound removed compared to liver blood flow) ([19]; human): <45%
- Human Microsomal Metabolic Stability: Remaining % ([19]; human liver microsome S9): 101%
- microsomal CLint ([19]; human, human liver microsome S9, human liver microsome S9, read-out: Human Microsomal Metabolic Stability: Clint): < 14 µL/min/mg
- half-life ([19]; human, human liver microsome S9, human liver microsome S9, read-out: Human Microsomal Metabolic Stability: Half-life): > 1.67 h
- Predicted in vivo clearance ([19]; scaled from microsomal clearance (liver weight, microsomes per liver, liver blood flow), human): <10 mL/min/kg
- Matrix Stability: Remaining % ([20]; FaSSGF): 95%
- half-life ([20]; fasted state simulated gastric fluid (FaSSGF), fasted state simulated gastric fluid, read-out: FaSSGF stability Half-life (converted)): > 10 h
- inhibition at 10 µM [21]: 4.7%
- GI50 [26]: 290 nM
